How the values were obtained:
[1] = biological target: Human immunodeficiency virus type 1 reverse transcriptase (Human immunodeficiency virus 1, UniProt Q72547); test: Inhibition of HIV1 reverse transcriptase
[2] = tested on: Human immunodeficiency virus 2; test: Antiviral activity against HIV2 ROD; type: functional, organism-based; conditions: Human immunodeficiency virus 2, ISOLATE ROD
[3] = tested on: Human immunodeficiency virus 1; test: Antiviral activity against HIV1 3B; type: functional, organism-based; conditions: Human immunodeficiency virus 1, 3B
[4] = tested on: Human immunodeficiency virus 1; test: Antiviral activity against HIV1 infected in human MT4 cells assessed as reduction in virus-induced cytopathogenicity; type: functional, organism-based; conditions: Human immunodeficiency virus 1, MT4
[5] = Selectivity index, ratio of CC50 for mock-infected human MT4 cells to EC50 for HIV1 infected in human MT4 cells; type: toxicity, cell-based; conditions: MT4 cells (mock-infected and HIV1-infected), read-out: Ratio CC50/EC50
[6] = Cytotoxicity against mock-infected human MT4 cells assessed as reduction in cell viability; type: cell-based
[7] = tested on: Human immunodeficiency virus; test: Antiviral activity against HIV by XTT assay; type: functional, organism-based; conditions: Human immunodeficiency virus 1

| Structure (SMILES) | EC50 [2] [µM] | EC50 [4] [µM] | CC50 [6] [µM] | other results |
| --- | --- | --- | --- | --- |
| O=C(NNc1nc2ccccc2n2cccc12)c1cnccn1 | – | – | – | IC50 [1]: 19 µM |
| O=C1N(Cc2ccccc2)c2cccn2S(=O)(=O)N1Cc1cccc(F)c1 | > 150 | – | – | – |
| N#Cc1ccccc1CN1C(=O)N(Cc2cccc(Br)c2)S(=O)(=O)n2cccc21 | > 150 | – | – | – |
| N#CCN1C(=O)N(Cc2cccc(Cl)c2)S(=O)(=O)n2cccc21 | > 150 | – | – | – |
| O=C1N(Cc2ccccc2Br)c2cccn2S(=O)(=O)N1Cc1cccc(Cl)c1 | > 150 | – | – | – |
| N#Cc1ccccc1CN1C(=O)N(Cc2cccc(F)c2)S(=O)(=O)n2cccc21 | > 150 | – | – | EC50 [3]: 5.6 µM |
| N#CCN1C(=O)N(Cc2cccc(F)c2)S(=O)(=O)n2cccc21 | > 150 | – | – | – |
| O=C1N(Cc2ccccc2Cl)c2cccn2S(=O)(=O)N1Cc1cccc(F)c1 | > 150 | – | – | EC50 [3]: 7.2 µM |
| CC(C)=CCN1C(=O)N(Cc2ccccc2)S(=O)(=O)n2cccc21 | > 150 | – | – | – |
| Cn1cc2c(c1)S(=O)(=O)c1cc(Cl)ccc1NC2=S | – | 7.6 | – | – |
| CC(C)=CCN1C(=O)N(Cc2cccc(F)c2)S(=O)(=O)n2cccc21 | > 150 | – | – | – |
| O=C1N(Cc2ccccc2Br)c2cccn2S(=O)(=O)N1Cc1ccccc1 | > 150 | – | – | – |
| O=C1N(Cc2cccc(Cl)c2)c2cccn2S(=O)(=O)N1Cc1cccc(Cl)c1 | > 150 | – | – | – |
| CCC1(CC=C(C)C)Sc2ccccc2-n2cccc2C1=O (stereo unspecified) | – | 45.2 | 0.3 | IC50 [1]: 1.35 µM; selectivity ratio [5]: 9 |
| CC(C)N1C(=O)c2cccn2S(=O)(=O)c2ccccc21 | – | 3.5 | > 100 | IC50 [1]: 4 µM |
| O=C1Nc2ccc(Cl)cc2S(=O)(=O)c2cn(CC3CC3)cc21 | – | 2.2 | – | – |
| CC(C)c1c(COC(N)=O)cn(Cc2ccncc2)c1Sc1cccc(F)c1 | – | 0.2 | > 200 | selectivity ratio [5]: 1000 |
| CC(C)c1c(COC(N)=O)cn(Cc2ccncc2)c1Sc1cc(F)cc(F)c1 | – | 0.1 | > 200 | selectivity ratio [5]: 2000 |
| CCCCCCCCCCCC(=O)NC1=NN(C)c2ncnc3c2c1cn3[C@@H]1O[C@H](CO)[C@@H](O)[C@H]1O | – | – | – | IC50 [7]: > 100 µM |
| CC(C)c1c(CO)cn(Cc2ccncc2)c1Sc1cccc(F)c1 | – | 0.05 | 71 | selectivity ratio [5]: 1420 |
| CC(C)=CCn1cc2c(c1)S(=O)(=O)c1cc(Cl)ccc1NC2=O | – | – | 68 | selectivity ratio [5]: 226 |
| CCCC(=O)NC1=NN(C)c2ncnc3c2c1cn3[C@@H]1O[C@H](CO)[C@@H](O)[C@H]1O | – | – | – | IC50 [7]: 0.5 µM |
| O=C1N(Cc2ccccc2)c2cccn2S(=O)(=O)N1Cc1ccccc1 | > 150 | – | – | – |

| Structure (SMILES) | EC50 [2] [µM] | EC50 [4] [µM] | CC50 [6] [µM] | other results |
| --- | --- | --- | --- | --- |
| Cc1cc(C)cc(Sc2c(C(C)C)c(COC(N)=O)cn2Cc2ccncc2)c1 | – | 0.15 | > 200 | selectivity ratio [5]: 1330 |
| O=C1N(Cc2ccccc2Br)c2cccn2S(=O)(=O)N1Cc1cccc(F)c1 | > 150 | – | – | – |
| CN1C(=O)c2cccn2S(=O)(=O)c2cc(Cl)ccc21 | – | 0.5 | > 300 | IC50 [1]: 0.5 µM; selectivity ratio [5]: > 600 |
| N#Cc1cccc(CN2C(=O)N(Cc3cccc(F)c3)S(=O)(=O)n3cccc32)c1 | > 150 | – | – | – |
| N#Cc1cccc(CN2C(=O)N(Cc3cccc(Cl)c3)S(=O)(=O)n3cccc32)c1 | > 150 | – | – | – |
| CN1C(=O)c2cccn2S(=O)(=O)c2ccccc21 | – | 3.5 | > 100 | IC50 [1]: 4 µM |
| CCCCCCCCC(=O)NC1=NN(C)c2ncnc3c2c1cn3[C@@H]1O[C@H](CO)[C@@H](O)[C@H]1O | – | – | – | IC50 [7]: > 100 µM |
| CCN1C(=O)c2cccn2S(=O)(=O)c2ccc(Cl)cc21 | – | 3.5 | > 100 | IC50 [1]: 4 µM |
| CN1C(=S)c2cn(C)cc2S(=O)(=O)c2cc(Cl)ccc21 | – | 1.6 | – | – |
| CCCCCCCC(=O)NC1=NN(C)c2ncnc3c2c1cn3[C@@H]1O[C@H](CO)[C@@H](O)[C@H]1O | – | – | – | IC50 [7]: > 100 µM |
| O=C1N(Cc2ccccc2)c2cccn2S(=O)(=O)N1Cc1cccc(Br)c1 | > 150 | – | – | – |
| CC(C)c1c(CO)cn(Cc2ccncc2)c1Sc1cc(Cl)cc(Cl)c1 | – | 0.03 | > 200 | selectivity ratio [5]: > 6670 |
| CC(C)=CCN1C(=O)N(Cc2cccc(Cl)c2)S(=O)(=O)n2cccc21 | > 150 | – | – | – |
| O=C1N(Cc2ccccc2Cl)c2cccn2S(=O)(=O)N1Cc1ccccc1 | > 150 | – | – | – |
| CCC1(c2ccc3ccccc3c2)Sc2ccccc2-n2cccc2C1=O (stereo unspecified) | – | 37.3 | 0.5 | IC50 [1]: 0.85 µM; selectivity ratio [5]: 9 |
| CCCCC(=O)NC1=NN(C)c2ncnc3c2c1cn3[C@@H]1O[C@H](CO)[C@@H](O)[C@H]1O | – | – | – | IC50 [7]: 0.8 µM |
| N#Cc1ccccc1CN1C(=O)N(Cc2cccc(Cl)c2)S(=O)(=O)n2cccc21 | > 150 | – | – | – |
| CC(C)c1c(COC(N)=O)cn(Cc2ccncc2)c1Sc1cc(Cl)cc(Cl)c1 | – | 0.12 | > 200 | selectivity ratio [5]: > 1670 |
| CC(C)=CCN1C(=O)N(Cc2cccc(Br)c2)S(=O)(=O)n2cccc21 | > 150 | – | – | – |
| O=C1N(Cc2cccc(Cl)c2)c2cccn2S(=O)(=O)N1Cc1ccccc1 | > 150 | – | – | – |
| O=C1Nc2ccccc2S(=O)(=O)n2cccc21 | – | 3.5 | > 100 | IC50 [1]: 4 µM |
| N#Cc1cccc(CN2C(=O)N(Cc3cccc(Br)c3)S(=O)(=O)n3cccc32)c1 | > 150 | – | – | – |
| C/C=C/CN1C(=O)c2cccn2S(=O)(=O)c2cc(Cl)ccc21 | – | 4.1 | > 300 | IC50 [1]: 3.1 µM; selectivity ratio [5]: > 73 |

| Structure (SMILES) | EC50 [2] [µM] | EC50 [4] [µM] | CC50 [6] [µM] | other results |
| --- | --- | --- | --- | --- |
| Cc1cccc(Sc2c(C(C)C)c(COC(N)=O)cn2Cc2ccncc2)c1 | – | 0.12 | > 200 | selectivity ratio [5]: 1670 |
| CCCCCCC(=O)NC1=NN(C)c2ncnc3c2c1cn3[C@@H]1O[C@H](CO)[C@@H](O)[C@H]1O | – | – | – | IC50 [7]: 0.035 µM |
| Cc1cccc(Sc2c(C(C)C)c(CO)cn2Cc2ccncc2)c1 | – | 0.008 | 50 | selectivity ratio [5]: 3250 |
| CC(C)c1c(COC(N)=O)cn(Cc2ccc(N)cc2)c1Sc1cc(Cl)cc(Cl)c1 | – | 0.1 | > 200 | selectivity ratio [5]: 2000 |
| CCC1(c2ccccc2)Sc2ccccc2-n2cccc2C1=O (stereo unspecified) | – | 4.9 | 0.25 | IC50 [1]: 0.47 µM; selectivity ratio [5]: 9 |
| CC1(c2ccccc2)Sc2ccccc2-n2cccc2C1=O (stereo unspecified) | – | 6.9 | 10 | IC50 [1]: 0.35 µM; selectivity ratio [5]: 9 |
| CCN1C(=O)c2cccn2S(=O)(=O)c2cc(Cl)ccc21 | – | 2.4 | > 300 | IC50 [1]: 2.7 µM; selectivity ratio [5]: 118 |
| C=CCN1C(=O)c2cccn2S(=O)(=O)c2cc(Cl)ccc21 | – | 3.7 | > 300 | IC50 [1]: 2.9 µM; selectivity ratio [5]: > 81 |
| C=CCC1(c2ccccc2)Sc2ccccc2-n2cccc2C1=O (stereo unspecified) | – | 6.4 | 25 | IC50 [1]: 0.71 µM; selectivity ratio [5]: 9 |
| O=C1N(Cc2ccccc2Br)c2cccn2S(=O)(=O)N1Cc1cccc(Br)c1 | > 150 | – | – | – |
| N#CCN1C(=O)N(Cc2cccc(Br)c2)S(=O)(=O)n2cccc21 | > 150 | – | – | – |
| CCN1C(=O)c2cccn2S(=O)(=O)c2ccccc21 | – | 3.5 | > 100 | IC50 [1]: 4 µM |
| O=C1N(Cc2cccc(Cl)c2)c2cccn2S(=O)(=O)N1Cc1cccc(Br)c1 | > 150 | – | – | – |
| N#CCN1C(=O)N(Cc2ccccc2)S(=O)(=O)n2cccc21 | > 150 | – | – | – |
| CSCn1cc2c(c1)S(=O)(=O)c1cc(Cl)ccc1NC2=O | – | 2.2 | – | – |
| O=S1(=O)c2cc(Cl)ccc2NC(=S)c2c[nH]cc21 | – | 8.1 | – | – |
| C=CCN1C(=O)c2cccn2S(=O)(=O)c2ccccc21 | – | 3.5 | > 100 | IC50 [1]: 4 µM |
| O=C1Nc2ccc(Cl)cc2S(=O)(=O)n2cccc21 | – | 1 | > 300 | IC50 [1]: 0.7 µM; selectivity ratio [5]: > 300 |
| CCCCCC(=O)NC1=NN(C)c2ncnc3c2c1cn3[C@@H]1O[C@H](CO)[C@@H](O)[C@H]1O | – | – | – | IC50 [7]: 0.35 µM |
| CCCCCCCCCC(=O)NC1=NN(C)c2ncnc3c2c1cn3[C@@H]1O[C@H](CO)[C@@H](O)[C@H]1O | – | – | – | IC50 [7]: > 100 µM |
| O=C1N(Cc2ccccc2)c2cccn2S(=O)(=O)N1Cc1cccc(Cl)c1 | > 150 | – | – | – |
| CC(C)=CCn1cc2c(c1)S(=O)(=O)c1cc(Cl)ccc1NC2=S | – | 0.7 | – | – |

— ChEMBL document CHEMBL3608235, “Pyrroloaryls and pyrroloheteroaryls: Inhibitors of the HIV fusion/attachment, reverse transcriptase and integrase” (Bioorg Med Chem, 2015)
